From publication PMC11414412, “Design and synthesis new indole-based aromatase/iNOS inhibitors with apoptotic antiproliferative activity” (Frontiers in Chemistry, 2024)

Assays:
Type in all cases: cell-based, human
[1] = test system: Caspase-3; test: Caspase-3 activation assay; details: A-594 cells; for Caspase-3 Fold change: at IC50 concentration, vs untreated control; for Caspase-3 Conc: compound at its IC50 concentration
[2] = test system: Bax; test: Bax activation assay; details: lung (A-549) cancer cells; for Bax Fold change: at IC50, vs untreated control; for Bax Conc: compound at IC50
Protocol: Cells were obtained from American Type Culture Collection, cells were grown in RPMI 1640 containing 10% fetal bovine serum at 37°C, stimulated with the compounds to be tested for caspase8, and lysed with Cell Extraction Buffer. This lysate was diluted in Standard Diluent Buffer over the range of the assay and measured for human active caspase-8 content. […]
4.2.7. Bax activation assay
Bring all reagents, except the human Bax-α Standard, to room temperature for at least 30 minutes prior to opening. The human Bax-α Standard solution should not be left at room temperature for more than 10 minutes. All standards, controls and samples should be run in duplicate. Refer to the Assay Layout Sheet to determine the number of wells to be used and put any remaining wells with the desiccant back into the pouch and seal the ziploc. Store unused wells at 4 °C. Pipet 100 μL of Assay Buffer into the S0 (0 pg/mL standard) wells. Pipet 100 μL of Standards #1 through #6 into the appropriate wells. Pipet 100 μL of the Samples into the appropriate wells. Tap the plate gently to mix the contents. Seal the plate and incubate at room temperature on a plate shaker for 1 hour at ~500 rpm. Empty the contents of the wells and wash by adding 400 μL of wash solution to every well. Repeat the wash 4 more times for a total of 5 washes. After the final wash, empty or aspirate the wells and firmly tap the plate on a lint free paper towel to remove any remaining wash buffer.
Pipet 100 μL of yellow Antibody into each well, except the Blank. Seal the plate and incubate at room temperature on a plate shaker for 1 hour at ~500 rpm. Empty the contents of the wells and wash by adding 400 μL of wash solution to every well. Repeat the wash 4 more times for a total of 5 washes. After the final wash, empty or aspirate the wells and firmly tap the plate on a lint free paper towel to remove any remaining wash buffer. Add 100 μL of blue Conjugate to each well, except the Blank. Seal the plate and incubate at room temperature on a plate shaker for 30 minutes […]
Pipet 100 μL of Substrate Solution into each well. Incubate for 30 minutes at room temperature on a plate shaker at ~500 rpm. Pipet 100 μL Stop Solution to each well. Blank the plate reader against the Blank wells, read the optical density at 450 nm. Calculate the average net Optical Density (OD) bound for each standard and sample by subtracting the average Blank OD from the average OD for each standard and sample. Using linear graph paper, plot the Average Net OD for each standard versus Bax concentration in each standard. Approximate a straight line through the points.
The concentration of Bax in the unknowns can be determined by interpolation. […]

[3] = test system: Bcl-2; test: Bcl-2 inhibition assay; details: lung (A-549) cancer cells; for Bcl-2 Conc: compound at IC50
Protocol: 4.2.8. Bcl-2 inhibition assay
Mix all reagents thoroughly without foaming before use. Wash the microwells twice with approximately 300 μL Wash Buffer per well with thorough aspiration of microwell contents between washes. Take caution not to scratch the surface of the microwells. After the last wash, empty the wells and tap microwell strips on absorbent pad or paper towel to remove excess Wash Buffer. Use the microwell strips immediately after washing or place upside down on a wet absorbent paper for not longer than 15 minutes. […] Add 100 μL of Sample […]
Diluent in duplicate to all standard wells and to the blank wells. Prepare standard (1:2 dilution) in duplicate ranging from 32 ng/mL to 0.5 ng/mL. Add 100 μL of Sample Diluent, in duplicate, to the blank wells. Add 80 μL of Sample Diluent, in duplicate, to the sample wells. Add 20 μL of each Sample, in duplicate, to the designated wells. Add 50 μL of diluted biotin-conjugate to all wells, including the blank wells. Cover with a plate cover and incubate at room temperature, on a microplate shaker at 100 rpm if available, for 2 hours. Remove plate cover and empty the wells.
Wash microwell strips 3 times as described in step 2. Add 100 μL of diluted Streptavidin-HRP to all wells, including the blank wells. Cover with a plate cover and incubate at room temperature, on a microplate shaker at 100 rpm if available, for 1 hour. Remove plate cover and empty the wells.
Wash microwell strips 3 times as described in step 2. Proceed to the next step. Pipette 100 μl of mixed TMB Substrate Solution to all wells, including the blanks. Incubate the microwell strips at room temperature (18° to 25°C) for about 15 minutes, if available on a rotator set at 100 rpm.
Avoid direct exposure to intense light. The point, at which the substrate reaction is stopped, is often determined by the ELISA reader. Many ELISA readers record absorbance only up to 2.0
O.D. Therefore, the color development within individual microwells must be watched by the person running the assay and the substrate reaction stopped before positive wells are no longer properly detectable. Stop the enzyme reaction by quickly pipetting 100 μL of Stop Solution into each well, including the blank wells. It is important that the Stop Solution is spread quickly and uniformly throughout the microwells to completely inactivate the enzyme. Results must be read immediately after the Stop Solution is added or within one hour i f the microwell strips are stored at 2 - 8°C in the dark. Read absorbance of each microwell on a spectrophotometer using 450 nm as the primary wavelength.

| SMILES | Caspase-3 Fold change [1] | Caspase-3 Conc [1] | Bax Fold change [2] | Bax Conc [2] | Bcl-2 Conc [3] | Bcl-2 Fold reduction ([3]; at IC50, vs untreated control) |
| --- | --- | --- | --- | --- | --- | --- |
| CCc1c2cc(Cl)ccc2n2cc(Cc3ccccc3)n(C)c(=O)c12 [Compound 12, 3-Benzyl-8-chloro-10-ethyl-2-methylpyrazino[1,2-a]indol-1(2H)-one] | 9 | 580 ± 5 pg/mL | 41 | 368 ± 3 pg/mL | 0.65 ng/mL | – |
| CCc1c2cc(Cl)ccc2n2cc(-c3ccccc3)[nH]c(=O)c12 [Compound 16, 8-Chloro-10-ethyl-3-phenylpyrazino [1,2-a]indol-1(2H)-one] | 8 | 530 ± 5 pg/mL | 35 | 315 ± 3 pg/mL | 0.85 ng/mL | ~6 |
